This note sets out measurements from ChEMBL document CHEMBL1799994, “Synthesis and docking studies on styryl chromones exhibiting cytotoxicity in human breast cancer cell line” (Bioorg Med Chem Lett, 2010).

The test system of experiment [1] is MCF7. Kind of experiment: Antiproliferative activity against human MCF7 cells expressing estrogen receptor after 24 hrs by MTT assay. The format is functional, cell-based.
The subject of experiment [2] is MCF7. Kind of experiment: Cytotoxicity against human MCF7 cells expressing estrogen receptor after 24 hrs by MTT assay. The format is functional, cell-based. In general terms: Tetrazolium dyes change colour on reduction, which living cells bring about.

SMILES strings stand for the structures.

Regarding `CC(=O)OC1=C(/C=C/c2ccccc2)Oc2ccccc2C1=C(C#N)C#N`, the Activity result in the experiment with MCF7 [1] and in the experiment with MCF7 [2] was “Dose-dependent effect” throughout.
